Experiments:
[1] = tested on: sympathetic neurotransmission; assay: Sympathetic neurotransmission in isolated vasa differentia after chronic stress of social deprivation and predator exposure; format: in vivo; conditions: mice, social deprivation and presence of predators 10 to 12 days; odour diluted in triethyl citrate
Protocol: The effects of odours on experimental animals exposed to stressors that cause chronic stress was assessed. Mice were divided into two groups, a control group exposed to minimal stress and a group exposed to severe stress by concurrent isolation and exposure to a predator. Each group was divided into sub-groups, one not exposed to any odour (control), one exposed to triethyl citrate vehicle (control), and the other groups exposed to an odour or a mixture of odours selected from cis-2-hexen-1-ol, trans-3-hexen-1-ol, trans-2-hexen-1-ol, cis-3-hexen-1-ol, trans-2-hexenal and α-pinene. Each odour compound was diluted (0.01 to 0.05% volume) with triethyl citrate. The solutions (0.5 mL) were placed on filter paper strips and placed within 30 cm of the animal cage. The response to stress was assessed using any or a combination of telemetry measurements, post-mortem electrophysiological studies and biochemical assays of blood samples.
Isolated vasa differentia were used to assess the effects of prolonged exposure to stress and its attenuation by odours. Following exposure of the mice to one of the stressors with or without odour, the level of neurotransmission from sympathetic varicosities was examined using standard focal extracellular recording methods (Lavidis and Bennett, 1992, 1993a, 1993b; D'Arbe et al., 2002). […] The extent of the increase reflects the level of stress the animal was exposed to during the previous 6-14 days (D'Arbe et al., 1999, D'Arbe et al., 2002).
Mice were exposed to two stressors concurrently, social deprivation and the presence of predators (rats in separate cages) for 10 to 12 days with or without the following odours or combination of odours, cis-2-hexen-1-ol, trans-2-hexen-1-ol, trans-3-hexen-1-ol, trans-2-hexenal, cis-3-hexen-1-ol, α-pinene and a combination of cis-3-hexen-1-ol and trans-2-hexenal. Two controls were used: mice not exposed to stress and mice exposed to stress together with triethyl citrate vehicle. The mice were monitored for up to 4 days after the stressors were removed.
Mice were placed in cages with one mouse per cage (social deprivation) in a room that contained cages with rats (predators) without odours (control). […] Box plots of the excitatory junction currents (EJC) obtained by electrophysiological methods are shown in FIG. 2 (control) and FIG. 3 (treated) and indicate the maximum EJC amplitude (Max), the distribution of 3rd quartiles (Q3), the median, the distribution of the 1st quartiles (Q1) and the distribution of the means. The data is from 16 animals from each treatment with at least 40 recording sites.

[2] = tested on: smooth muscle of mouse vas deferens; assay: Organ bath safety test: success rate of transmission after application of the chemicals; format: cell-based; conditions: 1.0% vol; for function of smooth muscle (success rate of transmission): evaluated over 40 minutes
Protocol: Safety data for the components of the combination of the invention have been obtained by applying the chemicals to smooth muscle in organ bath experiments. The mouse vas deferens was isolated and placed in an electrophysiological organ bath. Extracellular recording of transmitter release from sympathetic varicosities was recorded before and after both application of each of the chemicals CH, TH or ap. The effect (“success rate”) of each of the chemicals was evaluated over 40 minutes. Success rate was measured as (number of successful transmissions/number of nerve stimulations)×100. Following this measurement, the chemicals were washed out.

humans = conditions: cited from earlier work
rats = conditions: cited from earlier work

| Structure (SMILES) | effectiveness of the odour or odour combination from most effective to least effective (mean excitatory junction potentials, FIG. 1) [1] | function of smooth muscle (success rate of transmission) [2] | effect on the smooth muscle at the high concentration used [2] | hypnotic effect (humans) | resting period (rats) |
| --- | --- | --- | --- | --- | --- |
| CCC/C=C\CO [cis-2-hexen-1-ol, reference compound] | cis-2-hexen-1-ol>trans-3-hexen-1-ol |  |  |  |  |
| CC/C=C\CCO [cis-3-hexen-1-ol] | cis-3-hexen-1-ol>trans-2-hexenal | did not significantly affect |  |  |  |
| CCC/C=C/CO [trans-2-hexen-1-ol, reference compound] | least effective |  |  |  |  |
| CCC/C=C/C=O [trans-2-hexenal] | trans-2-hexenal>α-pinene | did not significantly affect | relaxed smooth muscle cells |  |  |
| CC/C=C/CCO [trans-3-hexen-1-ol, reference compound] | trans-3-hexen-1-ol>trans-2-hexen-1-ol |  |  |  |  |
| CC1=CCC2CC1C2(C)C (stereo not drawn) [α-pinene] | α-pinene>cis-2-hexen-1-ol | did not significantly affect |  | hypnotic effect | prolong the resting period |

Reference: patent US20090018212A1, “METHODS OF RELIEVING STRESS” (Neuroscent Pty Ltd., priority 2005, published 2009)
